The source made the active and inactive calls. The calls are words filed in the database; no cut-off is given here.
Experiments:
[1] = Inhibition of CK2
[2] = Inhibition of CK2 expressed in HEK293 cells by SRE-luciferase reporter gene assay; assay type: cell-based
[3] = Selectivity ratio of IC50 for S6 kinase to CK2
[4] = Selectivity ratio of IC50 for PKC to CK2
[5] = Selectivity ratio of IC50 for CAMK2 to CK2
[6] = Selectivity ratio of IC50 for p38beta2 to CK2
Rattus norvegicus = assay: Antinephritic activity in anti-GBM glomerulonephritis Wistar-Kyoto rat model assessed as improved proteinuria at 15 mg/kg, ip qd measured at day 7 by pyrogallol Red method; assay type: functional, organism-based; parameters: dose 15 mg/kg
[7] = Selectivity ratio of IC50 for ERK to CK2
[8] = Selectivity ratio of IC50 for PKA to CK2

IC50 [1] [nM]	IC50 [2] [nM]	SMILES	other results
30		O=C(O)Cc1ccn(-c2cncc(-n3ncc4ccccc43)n2)c1	
100		O=C(O)Cc1ccn(-c2cncc(-n3ccc4ccccc43)n2)c1	
25		Nc1ccc2cnn(-c3cncc(-n4ccc(CC(=O)O)c4)n3)c2c1	
9.3	900	O=C(O)Cc1ccn(-c2cncc(-n3ncc4ccc(NC5CCCC5)cc43)n2)c1	Ratio IC50 [3]: 626; Ratio IC50 [4]: > 740; Ratio IC50 [5]: 162; Ratio IC50 [6]: > 740; Activity (Rattus norvegicus): Active; Ratio IC50 [7]: > 740; Ratio IC50 [8]: > 740
2000		Cc1cc(O)c2c(c1)C(=O)c1cc(O)cc(O)c1C2=O [EMODIN]	
80		O=C(O)Cc1c2ccccc2n2c1[nH]c(=O)c1ccccc12	
8	1000	CC(C)Nc1ccc2cnn(-c3cncc(-n4ccc(CC(=O)O)c4)n3)c2c1	
3000		O=C(O)Cc1cn(-c2cncc(-n3cccc3)n2)c2ccccc12	
12	30000	O=C(O)Cc1ccn(-c2cncc(-n3nc(Cl)c4ccccc43)n2)c1	
8	15000	Nc1nn(-c2cncc(-n3ccc(CC(=O)O)c3)n2)c2ccccc12	
300		O=C(O)Cc1cn(-c2cncc(-n3cc(CC(=O)O)c4ccccc43)n2)c2ccccc12	
500		O=C(O)Cc1cn(-c2cncc(-n3ccc4ccccc43)n2)c2ccccc12	
50		O=C(O)Cc1ccn(-c2cncc(N3CCc4ccccc43)n2)c1	
16	4000	O=C(O)Cc1ccn(-c2cncc(-n3ncc4ccc(Cl)cc43)n2)c1	
100		O=C(O)Cc1ccn(-c2cncc(-n3cnc4ccccc43)n2)c1	
22	11000	N#Cc1ccc2cnn(-c3cncc(-n4ccc(CC(=O)O)c4)n3)c2c1	

Reference: ChEMBL document CHEMBL2046363, “Discovery and structure-activity relationship of 2,6-disubstituted pyrazines, potent and selective inhibitors of protein kinase CK2” (Bioorg Med Chem Lett, 2012)
